In PMC7180948, “New Insights into 4-Anilinoquinazolines as Inhibitors of Cardiac Troponin I–Interacting Kinase (TNNi3K)” (Molecules, 2020):

Experiments:
Test in all cases: biochemical
Parameters in all cases: KINOMEscan competition binding panel (Eurofins DiscoverX), single concentration, % inhibition
[1] = molecular target: CDK8 (Homo sapiens, UniProt P49336); conditions: read-out: 7 at 1 µM % inhibition
Method: (§1) KinomeScan® Assay on 7 and 15 was performed as previously described by EuroFins DiscoverX [24]. GSK114 (7) and 15 were submitted for a KINOMEscan® assay to explore the selectivity profile across >400 human kinases at a compound concentration of 1 µM. […] GSK114 (7) is a narrow-spectrum TNNi3K inhibitor but has some potent off-targets including GAK which has been previously reported for this chemotype. […] If utilized together this set of compounds could be useful to investigate TNNi3K biology.

[2] = molecular target: CSF1R (Homo sapiens, UniProt P07333); conditions: read-out: 7 at 1 µM % inhibition
Method: as §1

[3] = molecular target: SRPK1 (Homo sapiens, UniProt Q96SB4); conditions: read-out: 7 at 1 µM % inhibition
Method: as §1

[4] = molecular target: FRK (Homo sapiens, UniProt P42685); conditions: read-out: 7 at 1 µM % inhibition
Chain of FRK (P42685 whole entry): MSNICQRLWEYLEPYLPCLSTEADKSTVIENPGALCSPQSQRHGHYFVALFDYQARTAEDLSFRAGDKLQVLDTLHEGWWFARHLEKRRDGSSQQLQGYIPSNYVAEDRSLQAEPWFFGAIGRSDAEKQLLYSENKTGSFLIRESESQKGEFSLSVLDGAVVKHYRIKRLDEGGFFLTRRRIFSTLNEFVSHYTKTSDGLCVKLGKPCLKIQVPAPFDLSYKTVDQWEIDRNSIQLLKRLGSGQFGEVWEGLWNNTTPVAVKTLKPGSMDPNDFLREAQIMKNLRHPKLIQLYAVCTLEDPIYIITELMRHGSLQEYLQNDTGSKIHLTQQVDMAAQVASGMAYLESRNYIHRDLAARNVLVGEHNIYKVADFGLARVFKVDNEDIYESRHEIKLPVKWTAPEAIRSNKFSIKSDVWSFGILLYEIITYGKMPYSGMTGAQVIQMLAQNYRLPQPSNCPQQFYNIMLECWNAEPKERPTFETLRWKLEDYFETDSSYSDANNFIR
Method: as §1

[5] = molecular target: T1, MLK3 (Homo sapiens, UniProt Q16584); conditions: read-out: 7 at 1 µM % inhibition
T1 construct: gene MAP3K11
Method: as §1

[6] = molecular target: MAP3K4 (Homo sapiens, UniProt Q9Y6R4); conditions: read-out: 7 at 1 µM % inhibition
Method: as §1

[7] = molecular target: PIP5K1A (Homo sapiens, UniProt Q99755); conditions: read-out: 7 at 1 µM % inhibition
Method: as §1

[8] = molecular target: RIOK2 (Homo sapiens, UniProt Q9BVS4); conditions: read-out: 7 at 1 µM % inhibition
Method: as §1

[9] = molecular target: VRK2 (Homo sapiens, UniProt Q86Y07); conditions: read-out: 7 at 1 µM % inhibition
Method: as §1

[10] = molecular target: BRAF (Homo sapiens, UniProt P15056); conditions: read-out: 7 at 1 µM % inhibition
Chain of BRAF (P15056 whole entry): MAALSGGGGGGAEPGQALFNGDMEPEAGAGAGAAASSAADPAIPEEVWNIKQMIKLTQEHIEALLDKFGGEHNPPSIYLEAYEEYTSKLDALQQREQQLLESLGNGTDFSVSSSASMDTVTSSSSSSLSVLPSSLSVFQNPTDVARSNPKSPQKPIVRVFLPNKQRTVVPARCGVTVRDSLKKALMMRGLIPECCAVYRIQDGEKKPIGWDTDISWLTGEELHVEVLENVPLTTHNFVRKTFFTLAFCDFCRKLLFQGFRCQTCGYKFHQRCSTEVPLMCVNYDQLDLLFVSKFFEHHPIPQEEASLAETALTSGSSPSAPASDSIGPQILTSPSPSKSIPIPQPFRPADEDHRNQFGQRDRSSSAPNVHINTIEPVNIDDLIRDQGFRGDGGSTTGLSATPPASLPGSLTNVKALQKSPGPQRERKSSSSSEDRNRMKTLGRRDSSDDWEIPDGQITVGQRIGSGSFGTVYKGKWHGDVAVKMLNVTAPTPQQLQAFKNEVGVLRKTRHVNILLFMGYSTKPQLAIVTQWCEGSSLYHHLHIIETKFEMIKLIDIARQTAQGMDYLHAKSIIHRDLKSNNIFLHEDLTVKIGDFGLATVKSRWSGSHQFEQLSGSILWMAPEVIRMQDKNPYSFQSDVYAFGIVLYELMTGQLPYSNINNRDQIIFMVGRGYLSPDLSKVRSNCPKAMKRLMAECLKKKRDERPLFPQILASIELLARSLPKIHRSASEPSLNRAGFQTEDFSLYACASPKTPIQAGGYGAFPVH
Method: as §1

[11] = molecular target: PRKD2 (Homo sapiens, UniProt Q9BZL6); conditions: read-out: 7 at 1 µM % inhibition
Method: as §1

[12] = molecular target: T2, RSK2(Kin.Dom.1-N-terminal) (Homo sapiens, UniProt P51812); conditions: read-out: 7 at 1 µM % inhibition
T2 construct: gene RPS6KA3; Kin.Dom.1-N-terminal
Method: as §1

[13] = molecular target: T3, ABL1(E255K)-phosphorylated (Homo sapiens, UniProt P00519, E255K); conditions: read-out: 7 at 1 µM % inhibition
T3 construct: phosphorylated
T3 sequence (P00519 whole entry E255K): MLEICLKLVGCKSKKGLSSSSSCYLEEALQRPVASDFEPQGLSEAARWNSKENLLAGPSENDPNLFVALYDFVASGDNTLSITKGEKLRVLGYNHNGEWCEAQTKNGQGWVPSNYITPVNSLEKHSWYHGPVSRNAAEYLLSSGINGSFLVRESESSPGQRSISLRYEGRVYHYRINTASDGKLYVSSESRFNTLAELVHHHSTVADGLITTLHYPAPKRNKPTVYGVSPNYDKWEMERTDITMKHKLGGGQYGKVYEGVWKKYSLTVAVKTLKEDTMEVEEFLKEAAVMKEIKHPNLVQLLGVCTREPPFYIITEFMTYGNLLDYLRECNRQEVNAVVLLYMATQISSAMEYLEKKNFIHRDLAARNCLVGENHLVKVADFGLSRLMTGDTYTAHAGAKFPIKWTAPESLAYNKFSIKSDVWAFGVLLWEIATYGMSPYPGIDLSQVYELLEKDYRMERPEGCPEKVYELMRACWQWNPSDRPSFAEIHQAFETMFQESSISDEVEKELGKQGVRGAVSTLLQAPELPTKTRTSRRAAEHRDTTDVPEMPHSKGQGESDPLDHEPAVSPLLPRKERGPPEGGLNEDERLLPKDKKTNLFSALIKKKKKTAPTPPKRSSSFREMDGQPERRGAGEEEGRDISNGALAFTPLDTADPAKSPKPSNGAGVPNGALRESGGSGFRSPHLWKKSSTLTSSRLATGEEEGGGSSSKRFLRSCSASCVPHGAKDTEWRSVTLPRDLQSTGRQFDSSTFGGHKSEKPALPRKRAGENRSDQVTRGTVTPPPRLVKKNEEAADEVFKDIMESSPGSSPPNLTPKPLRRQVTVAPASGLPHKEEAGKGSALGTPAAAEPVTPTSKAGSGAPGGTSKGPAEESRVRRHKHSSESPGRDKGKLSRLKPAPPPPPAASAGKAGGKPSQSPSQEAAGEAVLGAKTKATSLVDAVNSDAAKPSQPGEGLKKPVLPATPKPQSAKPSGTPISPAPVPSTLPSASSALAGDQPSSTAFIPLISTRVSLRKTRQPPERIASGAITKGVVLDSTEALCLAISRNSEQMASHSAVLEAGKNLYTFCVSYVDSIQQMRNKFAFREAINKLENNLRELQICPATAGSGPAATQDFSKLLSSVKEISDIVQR
Method: as §1

[14] = molecular target: PKMYT1 (Homo sapiens, UniProt Q99640); conditions: read-out: 7 at 1 µM % inhibition
Method: as §1

[15] = molecular target: PIK3CA(I800L) (Homo sapiens, UniProt P42336, I800L); conditions: read-out: 7 at 1 µM % inhibition
Chain of PIK3CA(I800L) (P42336 whole entry I800L): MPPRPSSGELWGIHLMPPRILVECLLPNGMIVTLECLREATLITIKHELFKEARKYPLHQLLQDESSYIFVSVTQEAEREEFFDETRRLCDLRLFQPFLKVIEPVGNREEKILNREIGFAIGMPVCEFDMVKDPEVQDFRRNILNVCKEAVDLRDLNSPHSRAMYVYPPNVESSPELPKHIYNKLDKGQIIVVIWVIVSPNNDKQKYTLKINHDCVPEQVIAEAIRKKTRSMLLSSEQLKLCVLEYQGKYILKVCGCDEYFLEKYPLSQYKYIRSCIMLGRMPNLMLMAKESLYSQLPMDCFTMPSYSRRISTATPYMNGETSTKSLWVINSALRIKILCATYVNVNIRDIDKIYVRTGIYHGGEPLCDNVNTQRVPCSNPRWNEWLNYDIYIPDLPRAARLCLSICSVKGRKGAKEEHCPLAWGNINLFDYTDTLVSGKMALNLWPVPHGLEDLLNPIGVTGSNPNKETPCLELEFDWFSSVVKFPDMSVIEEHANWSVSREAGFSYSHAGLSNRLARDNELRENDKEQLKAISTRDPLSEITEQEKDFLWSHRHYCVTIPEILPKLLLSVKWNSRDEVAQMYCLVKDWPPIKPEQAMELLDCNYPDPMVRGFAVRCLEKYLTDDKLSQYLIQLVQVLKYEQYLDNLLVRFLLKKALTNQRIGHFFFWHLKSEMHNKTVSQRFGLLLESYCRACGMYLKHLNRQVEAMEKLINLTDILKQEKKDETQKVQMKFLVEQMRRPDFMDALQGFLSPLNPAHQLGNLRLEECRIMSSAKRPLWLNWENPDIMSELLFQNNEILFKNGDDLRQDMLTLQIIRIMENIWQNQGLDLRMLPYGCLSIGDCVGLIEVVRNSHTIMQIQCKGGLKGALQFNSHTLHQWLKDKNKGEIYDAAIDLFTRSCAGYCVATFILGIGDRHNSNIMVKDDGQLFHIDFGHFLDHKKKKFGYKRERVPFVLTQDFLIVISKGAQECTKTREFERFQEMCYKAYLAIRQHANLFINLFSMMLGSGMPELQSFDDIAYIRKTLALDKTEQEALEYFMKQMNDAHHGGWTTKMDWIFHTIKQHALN
Method: as §1

[16] = molecular target: MAP3K3 (Homo sapiens, UniProt Q99759); conditions: read-out: 7 at 1 µM % inhibition
Chain of MAP3K3 (Q99759 whole entry): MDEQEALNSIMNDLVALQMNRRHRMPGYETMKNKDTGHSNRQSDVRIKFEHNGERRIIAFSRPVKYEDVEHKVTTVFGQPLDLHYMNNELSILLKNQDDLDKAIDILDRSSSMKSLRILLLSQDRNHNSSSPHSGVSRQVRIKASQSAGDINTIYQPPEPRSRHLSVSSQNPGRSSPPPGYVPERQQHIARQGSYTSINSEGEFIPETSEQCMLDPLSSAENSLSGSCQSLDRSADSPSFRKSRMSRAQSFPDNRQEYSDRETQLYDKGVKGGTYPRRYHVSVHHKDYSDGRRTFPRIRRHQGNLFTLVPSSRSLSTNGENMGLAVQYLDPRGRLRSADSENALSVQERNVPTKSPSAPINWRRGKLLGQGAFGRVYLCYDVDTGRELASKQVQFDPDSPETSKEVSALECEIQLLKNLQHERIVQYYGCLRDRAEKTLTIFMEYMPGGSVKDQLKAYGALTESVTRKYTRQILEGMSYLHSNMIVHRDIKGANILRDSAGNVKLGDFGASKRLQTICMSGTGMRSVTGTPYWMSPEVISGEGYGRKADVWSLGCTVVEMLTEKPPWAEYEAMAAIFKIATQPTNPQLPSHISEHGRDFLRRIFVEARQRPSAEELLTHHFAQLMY
Method: as §1

[17] = molecular target: T4, SGK (Homo sapiens, UniProt O00141); conditions: read-out: 7 at 1 µM % inhibition
T4 construct: gene SGK1
Method: as §1

[18] = molecular target: ULK2 (Homo sapiens, UniProt Q8IYT8); conditions: read-out: 7 at 1 µM % inhibition
Method: as §1

[19] = molecular target: CSNK1G3 (Homo sapiens, UniProt Q9Y6M4); conditions: read-out: 7 at 1 µM % inhibition
Method: as §1

[20] = molecular target: T5, PFPK5(P.falciparum) (Plasmodium falciparum, UniProt P61075); conditions: read-out: 7 at 1 µM % inhibition (pathogen kinases)
T5 construct: gene CRK2
Method: as §1

[21] = molecular target: T6, NDR1 (Homo sapiens, UniProt Q15208); conditions: read-out: 7 at 1 µM % inhibition
T6 construct: gene STK38
Method: as §1

[22] = molecular target: T7, PFTK1 (Homo sapiens, UniProt O94921); conditions: read-out: 7 at 1 µM % inhibition
T7 construct: gene CDK14
Method: as §1

[23] = molecular target: CASK (Homo sapiens, UniProt O14936); conditions: read-out: 7 at 1 µM % inhibition
Chain of CASK (O14936 whole entry): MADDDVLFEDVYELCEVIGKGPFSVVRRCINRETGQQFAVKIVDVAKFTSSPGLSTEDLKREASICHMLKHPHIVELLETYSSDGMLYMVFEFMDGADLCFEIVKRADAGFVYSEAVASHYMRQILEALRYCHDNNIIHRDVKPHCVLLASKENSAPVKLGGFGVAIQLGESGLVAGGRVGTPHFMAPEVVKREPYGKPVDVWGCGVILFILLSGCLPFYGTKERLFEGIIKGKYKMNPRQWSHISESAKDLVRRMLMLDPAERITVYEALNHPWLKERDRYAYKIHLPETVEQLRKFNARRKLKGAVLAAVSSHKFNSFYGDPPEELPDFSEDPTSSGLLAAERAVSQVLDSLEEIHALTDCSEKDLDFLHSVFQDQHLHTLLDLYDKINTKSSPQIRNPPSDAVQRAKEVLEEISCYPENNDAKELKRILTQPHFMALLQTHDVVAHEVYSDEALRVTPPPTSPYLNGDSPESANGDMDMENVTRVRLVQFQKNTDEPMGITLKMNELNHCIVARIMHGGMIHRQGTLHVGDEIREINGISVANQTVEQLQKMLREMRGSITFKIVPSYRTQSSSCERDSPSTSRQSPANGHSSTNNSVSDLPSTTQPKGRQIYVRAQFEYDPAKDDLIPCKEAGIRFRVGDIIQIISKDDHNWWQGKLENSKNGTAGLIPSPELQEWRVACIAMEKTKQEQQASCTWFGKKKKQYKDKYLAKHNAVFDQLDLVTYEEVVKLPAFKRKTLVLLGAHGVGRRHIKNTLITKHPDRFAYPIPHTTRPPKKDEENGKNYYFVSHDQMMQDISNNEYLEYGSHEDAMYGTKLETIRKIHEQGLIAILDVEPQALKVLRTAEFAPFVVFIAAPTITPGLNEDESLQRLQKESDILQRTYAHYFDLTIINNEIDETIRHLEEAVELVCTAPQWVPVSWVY
Method: as §1

[24] = molecular target: T8, MRCKA (Homo sapiens, UniProt Q5VT25); conditions: read-out: 7 at 1 µM % inhibition
T8 construct: gene CDC42BPA
Method: as §1

CNS(=O)(=O)c1ccc(N(C)C)c(Nc2ncnc3cc(OC)c(OC)cc23)c1 [compound 7, 3-((6,7-dimethoxyquinazolin-4-yl)amino)-4-(dimethylamino)-N-methylbenzenesulfonamide]
inhibition at 1 µM [1]: 0%
inhibition at 1 µM [2]: 22%
inhibition at 1 µM [3]: 0%
inhibition at 1 µM [4]: 0%
inhibition at 1 µM [5]: 0%
inhibition at 1 µM [6]: 0%
inhibition at 1 µM [7]: 0%
inhibition at 1 µM [8]: 0%
inhibition at 1 µM [9]: 29%
inhibition at 1 µM [10]: 84%
inhibition at 1 µM [11]: 8%
inhibition at 1 µM [12]: 13%
inhibition at 1 µM [13]: 34%
inhibition at 1 µM [14]: 0%
inhibition at 1 µM [15]: 56%
inhibition at 1 µM [16]: 30%
inhibition at 1 µM [17]: 1%
inhibition at 1 µM [18]: 19%
inhibition at 1 µM [19]: 11%
inhibition at 1 µM [20]: 6%
inhibition at 1 µM [21]: 0%
inhibition at 1 µM [22]: 0%
inhibition at 1 µM [23]: 0%
inhibition at 1 µM [24]: 0%
